Like-named read-outs stand apart in the source and are kept apart here. No end group written: not given here.
System: polymorphonuclear leukocyte adhesion to TNF activated endothelial cells
Assay type: cell-based, human
Conditions: for Average % Change of PMN Adhesion to TNF Activated ECs: average over PMN donors (# donors in parentheses); for Percent Change of Adhesion: donor 140 (second line), lower part of Table 4
Protocol: Leukocyte adherence can be measured using several assays known in the art, and the preferred assay is described by Charo, et al., 1985, Blood, 65:473. Briefly, the assay consists of labelling leukocytes with an appropriate label, incubating them with endothelial cells and determining the number of leukocytes that adhere. Preferably the cells are labelled with a gamma ray emitting isotope and the preferred labels are ^111 Indium-oxide or ^51 chromium.
Leukocytes may be isolated from human donors using standard techniques. This generally consists of isolating blood in a physiologically balanced salt solution containing an appropriate anticoagulant, and separating the leukocytes by an appropriate separation step, preferably on Ficoll-Hypaquegradients. Contaminating erythrocytes can be removed by hypotonic lysis. The resulting leukocytes are suspended in a physiologically buffered solution, pH 7.4. The preferred physiological buffered solution is Hank's balanced salt solution that is calcium and magnesium free.
The isolated leukocytes can then be labelled by incubating them for an appropriate time, generally 15 minutes, with the desired radioisotope at a predetermined concentration. The radiolabelled cells are washed to remove unincorporated label, and then suspended in an appropriate solution to perform the adhesion assay described below.
Endothelial cells can be prepared from a number of sources and by several techniques known in the art. Preferably they are obtained from human umbilical veins using the procedure of Charo et al., above. Generally, endothelial cells are isolated by enzymatic digestion of the umbilical veins using, preferably, collagenase as described by Jaffe, E. A., et al., 1973, J. of Clin. Invest, 52:2745. The cells are grown on an appropriate tissue culture substratum, preferably gelatine-coated surfaces.
The endothelial cells may be grown in a variety of tissue culture media containing appropriate supplements such as an appropriate concentration of fetal calf serum, and other supplements/additives routinely utilized by those skilled in this art that are recognized as being favorable for endothelial cells. The endothelial cells may be passaged with a dilute solution of an appropriate protease, and if desired a metal ion chelator. Preferably a solution consisting of 0.05 to 0.25% trypsin and 0.02% EDTA is used. To ensure that the cells are indeed endothelial cells, they are tested by immunofluorescence for Factor VIII antigen, a known endothelial cell marker.
Leukocyte adherence to endothelial cell monolayers may be determined as follows. Early passage endothelial cells, generally not beyond the fifth passage, are cultured on an appropriate substratum and in a suitable cell culture medium. The culture substratum is preferably pre-coated with an appropriate substance that enhances the adherence of the endothelial cells. Several such substances are known including fibronectin, poly-L-lysine, gelatin and laminin. Fibronectin is preferred. An appropriate culture substratum is a 96 well micro titer plate, and a suitable medium is Medium 199 containing fetal calf serum and other supplements known to be beneficial for the growth and maintenance of endothelial cells that are well known to those skilled in the art. Prior to adding a predetermined number of labelled leukocytes, the endothelial cell monolayer is washed with a physiologically balanced salt solution containing a reduced amount of fetal calf serum, preferably 1%. The preferred solution is RPMI supplemented with 1% fetal calf serum.
The endothelial cell monolayer containing added leukocytes is incubated for a time sufficient to permit maximum adherence of the leukocytes, and preferably this is conducted at 37° C. for 30 minutes in an appropriate cell culture atmosphere. Generally this would consist of growing and incubating the cells for the assay period in 5% CO2, 95% air, and 95% humidity. […]

Row | Sequence | Average % Change of PMN Adhesion to TNF Activated ECs (10^-4 M) | Average % Change of PMN Adhesion to TNF Activated ECs (10^-6 M) | Average % Change of PMN Adhesion to TNF Activated ECs (10^-8 M) [%] | Average % Change of PMN Adhesion to TNF Activated ECs (10^-5 M) | Average % Change of PMN Adhesion to TNF Activated ECs (10^-7 M) | other results
1 | AHKLAENNIQPIFAVT [Peptide 2-16, NH2 --Ala--His--Lys--Leu--Ala--Glu--Asn--Asn--Ile--Gln--Pro--Ile--Phe--Ala--Val--Thr--COOH] | -7% | -1% | -2 | – | – | –
2 | CRIARLEEKVKTLKAQNSELASTANMLREQVAQLKQKVMNHA [WT, NH2 --Cys--Arg--Ile--Ala--Arg--Leu--Glu--Glu--Lys--Val--Lys--Thr--Leu--Lys--Ala--Gln--Asn--Ser--Glu--Leu--Ala--Ser--Thr--Ala--Asn--Met--Leu--Arg--Glu--Gln--Val--Ala--Gln--Leu--Lys--Gln--Lys--Val--Met--Asn--His--Ala--COOH, reference compound] | -54% | +22% | -15 | 0% | +8% | activity on PMN adhesion at 10^-4 M (in words) (10^-4 M): inhibited polymorphonuclear leukocyte adhesion
3 | DAPEGGLDAMMQVA [Peptide 5-14, NH2 --Asp--Ala--Pro--Glu--Gly--Gly--Leu--Asp--Ala--Met--Met--Gln--Val--Ala--COOH] | +9% | +7% | 0 | – | – | –
4 | DGFHFAGDGKLGAI [Peptide 4-14, NH2 --Asp--Gly--Phe--His--Phe--Ala--Gly--Asp--Gly--Lys--Leu--Gly--Ala--Ile--COOH] | -9% | -4% | -6 | +28% | +12% | inhibitory activity in the PMN adhesion assay (in words): little activity
5 | IGWRNVTRLLVFATD [Peptide 4-15, NH2 --Ile--Gly--Trp--Arg--Asn--Val--Thr--Arg--Leu--Leu--Val--Phe--Ala--Thr--Asp--COOH] | – | – | – | – | – | concentration of peak inhibitory activity in the PMN adhesion assay: 10^4 to 10^-5 M; inhibitory activity in the PMN adhesion assay (in words): active; Percent Change of Adhesion (10^-5 M (first column (so in the source))): -53%; Percent Change of Adhesion, Average (10^-5 M, average of donors 140, 195, 363, 515, 140): -5 ± 3%; Percent Change of Adhesion (10^-5 M): 0%; Percent Change of Adhesion, Average (10^-6 M, average of donors 140, 195, 363, 515, 140): -6 ± 2%; Percent Change of Adhesion, Average (1000.0): -17 ± 2%; Percent Change of Adhesion, Average (100000.0): -58 ± 7%
6 | KTVLPFVNTHPDKLRN [Peptide 6-16, NH2 --Lys--Thr--Val--Leu--Pro--Phe--Val--Asn--Thr--His--Pro--Asp--Lys--Leu--Arg--Asn--COOH] | +6% | -11% | -25 | – | – | –
7 | RIARLEEKVKTLKAENSELASTANMLREEVAQLEQEVMNHA [Peptide 2X, NH2 --Arg--Ile--Ala--Arg--Leu--Glu--Glu--Lys--Val--Lys--Thr--Leu--Lys--Ala--Glu--Asn--Ser--Glu--Leu--Ala--Ser--Thr--Ala--Asn--Met--Leu--Arg--Glu--Glu--Val--Ala--Gln--Leu--Glu--Gln--Glu--Val--Met--Asn--His--Ala--COOH, reference compound] | -38% | – | -20 | -1% | -23% | concentration range over which the peptide had activity on PMN adhesion: 10^-4 to 10^-8 M
8 | RIARLKEKVKTLKAKNSELASTANMLREQVAQLKQKVMNHA [JUN-k, NH2 --Arg--Ile--Ala--Arg--Leu--Lys--Glu--Lys--Val--Lys--Thr--Leu--Lys--Ala--Lys--Asn--Ser--Glu--Leu--Ala--Ser--Thr--Ala--Asn--Met--Leu--Arg--Glu--Gln--Val--Ala--Gln--Leu--Lys--Gln--Lys--Val--Met--Asn--His--Ala--COOH, reference compound] | -25% | +3% | – | -15% | -7% | activity on PMN adhesion at 10^-4 M (in words) (10^-4 M): inhibited polymorphonuclear leukocyte adhesion
9 | SSNVVHLIKNAYNKLSS [Peptide 3-17, NH2 --Ser--Ser--Asn--Val--Val--His--Leu--Ile--Lys--Asn--Ala--Tyr--Asn--Lys--Leu--Ser--Ser--COOH] | -13% | +13% | -7 | +43% | -18% | –
10 | SYSMLDDLRNVKKLG [Peptide 1-15, NH2 --Ser--Tyr--Ser--Met--Leu--Asp--Asp--Leu--Arg--Asn--Val--Lys--Lys--Leu--Gly--COOH] | -24% | -9% | -4 | – | – | –

— patent publication US5340800A, “Peptide medicaments for the treatment of disease” (priority 1992, dated 1994)
